From patent US11730742B2, “Pharmaceutical use of thiophene [3,2-d] pyrimidine-4-ketone compound” (SHANGHAI INSTITUTE OF MATERIA MEDICA, CHINESE ACADEMY OF …, priority 2018, dated 2023)
Entries after “also recorded” stand apart in the source; their conditions may differ.

What was measured:
[1] = test system: NAFLD model of ob/ob mice induced by high-fat diet; assay: NAFLD model of ob/ob mice induced by high-fat diet (Example 5); assay type: in vivo; conditions: 8 weeks
Protocol: In this experiment, the NAFLD model of ob/ob mice induced by high-fat diet was used to investigate the treatment effect of long-term oral administration of compound DC291407 on NAFLD.
Animal experiment: ob/ob obese mice were divided into 3 groups according to random blood glucose, random body weight, fasting blood glucose, and fasting body weight at the 8th week of age, with 9 mice in each group. There were the model control group (vehicle) and the DC291407 group (20 mg/kg), the positive compound Alogliptin group (20 mg/kg), respectively and mice were administered by oral gavage, twice a day. A group of 6 normal mice in the same cage was set up as a normal control group (WT). Except for the WT group, they were fed with normal feed, and the rest groups were fed with high-fat feed. The administration was continued for 8 weeks. During the administration, the animal's food intake and body weight were monitored. After the last administration, the animals were fasted for 6 hours and allowed to drink water freely. Then the body weight was measured, the blood was collected from the retro-ocular venous plexus, and liver was dissected. Part of the liver was placed in 4% paraformaldehyde, and the rest was stored in a refrigerator at −80° C. This experiment reflected whether the compound had the treating effect on NAFLD by detecting the levels of liver function indexes ALT and AST in the serum, the contents of TC and TG in the liver, the NAS score of liver pathology (HE staining) and the like.

[2] = test system: Human hepatic stellate cell line LX-2; assay: Inhibition of TGF-β-induced hepatic stellate cell activation (α-SMA, fibronectin by Western Blot); assay type: cell-based; conditions: LX-2, 10 ng/mL TGF-β plus compound for 24 hours; for inhibition of the activation of hepatic stellate cells HSC: α-SMA and fibronectin by Western Blot
Description: Human hepatic stellate cell line LX-2 was used in cell function experiments. […] By comparing the expression levels of extracellular matrix in the TGF-β group and the cell group in which TGF-β and the compound to be tested were both added at the same time, the efficacy of the compound in alleviating liver fibrosis through hepatic stellate cells was characterized.
The cell experiment procedure was as follows. The human hepatic stellate cell line LX-2 was selected and inoculated into the treated 24-well plate at 7.5×10^4/well. After the cells were adhered overnight and they were subjected to starvation treatment for 12 hours, the cells were treated with 10 ng/mL TGF-β and the corresponding test compound for 24 hours and then protein samples were collected. The expression of extracellular matrix represented by α-smooth muscle myofilament (α-SMA) and fibronectin was detected by Western Blot.

[3] = test system: CCl4 induced liver fibrosis model mice; assay: CCl4 induced liver fibrosis model mice, long-term oral administration (Example 4); assay type: in vivo; conditions: for serum ALT level / serum AST level: 20 and 60 mg/kg oral gavage twice a day
Protocol: In this experiment, CCl4 induced liver fibrosis model mice were used to investigate the effect of long-term oral administration of compound DC291407 on liver fibrosis in the model mice.
Animal experiment: Male C57BL/6j mice were injected intraperitoneally with 2 mL/kg, 10% CCl4 (dissolved in olive oil) three times a week to induce liver fibrosis model. Two weeks after modeling, the blood was taken from the retro-ocular venous plexus of the mice, and serum ALT and AST indexes were detected. According to ALT, AST, body weight and other indexes, the mice were randomly divided into 5 groups, each with 10 mice. There were the model control group (vehicle), DC291407 low-dose group (20 mg/kg), DC291407 high-dose group (60 mg/kg), positive compound OCA low-dose group (20 mg/kg), OCA high-dose group (40 mg/kg), respectively, and mice were administered by oral gavage. DC291407 was administered twice a day, and the other groups were administered once a day. During the administration period, the animals' food intake and body weight were monitored. After 3 weeks of administration, the blood was taken from the retro-ocular venous plexus of the mice, and serum ALT and AST indexes were detected. After 6 weeks of administration, the blood was taken from the retro-ocular venous plexus of the mice and then the mice were killed by dislocation. The liver was taken and weighed, part of the liver was fixed with 4% paraformaldehyde, and part of the liver was frozen at −80° C. During the whole experiment, another 10 mice in the same cage were injected intraperitoneally with the same dose of olive oil as a normal control group (WT). This experiment reflected whether the compound had the effect of relieving liver fibrosis by detecting the levels of liver function indexes ALT and AST in serum, the expression of α-SMA and Col1α1 gene levels in the liver, the content of hydroxyproline (a characteristic amino acid of collagen) in the liver, and liver pathological changes (Sirius scarlet staining) and the like.

[4] = test system: CCl4-induced liver fibrosis model mice; assay: CCl4-induced liver fibrosis model mice, multiple doses, comparison with sitagliptin (Example 6); assay type: in vivo; conditions: oral gavage twice a day, 6 weeks
Protocol: In this experiment, CCl4-induced liver fibrosis model mice were used to investigate the effect of long-term oral administration of compound DC291407 under multiple doses on liver fibrosis in the model mice, and comparison was conducted with the same dose of sitagliptin.
Animal experiment: Male C57BL/6j mice were injected intraperitoneally with 2 mL/kg, 10% CCl4 (dissolved in olive oil) three times a week to induce liver fibrosis model. Two weeks after modeling, the blood was taken from the retro-ocular venous plexus of the mice, and serum ALT and AST indexes were detected. According to ALT, AST, body weight and other indexes, the mice were randomly divided into 8 groups with 10 mice in each group. There were the models control group (vehicle), DC291407 low-dose group (6 mg/kg), DC291407 middle-dose group (20 mg/kg), DC291407 high-dose group (60 mg/kg), sitagliptin low-dose group (6 mg/kg), Sitagliptin middle-dose group (20 mg/kg), sitagliptin high-dose group (60 mg/kg) and system positive compound OCA group (20 mg/kg). The mice were administered by oral gavage. The OCA group was administered once a day, and the other groups were administered twice a day. During the administration period, the animals' food intake and body weight were monitored. After 3 weeks of administration, the blood was taken from the retro-ocular venous plexus of the mice, and serum ALT and AST indexes were detected. After 6 weeks of administration, the blood was taken from the retro-ocular venous plexus of the mice and then the mice were killed by dislocation. The liver was taken and weighed, part of the liver was fixed with 4% paraformaldehyde, and part of the liver was frozen at −80° C. During the whole experiment, another 10 mice in the same cage were injected intraperitoneally with the same dose of olive oil as a normal control group (WT). This experiment reflected whether the compound had the effect of relieving liver fibrosis by detecting the levels of liver function indexes ALT and AST in serum, the content of hydroxyproline (a characteristic amino acid of collagen) in the liver, and liver pathological changes (Sirius scarlet staining) and the like.

[5] = 20 mg/kg oral gavage twice a day
[6] = after 3 weeks of administration
[7] = after 6 weeks of administration

## COC(=O)c1cc2nc(N3CCC[C@@H](N)C3)n(Cc3ccccc3C#N)c(=O)c2s1 [DC291407, (R)-methyl-2-(3-aminopiperidin-1-yl)-3-(2-cyanobenzyl)-4-carbonyl-3,4-dihydrothieno[3,2-d]pyrimidine-6 carboxylic acid]
[1]; 20 mg/kg each, twice a day
  effect on serum ALT, AST and liver TG compared with alogliptin: equivalent to that of alogliptin
  effect on steatosis compared with alogliptin: better than that of alogliptin
  overall improvement effect on NAS score compared with alogliptin: equivalent to that of alogliptin
[1]; [5]
  content of TG in liver tissue: significantly reduce
  level of ALT in serum: significantly reduce
  level of AST in serum: significantly reduce
  lobular inflammation (NAS score, HE stained liver sections): a certain alleviating effect
  steatosis (NAS score, HE stained liver sections): improve steatosis
[2]
  inhibitory activity on HSC activation compared with positive control Alogliptin: better than that of the positive control Alogliptin
  inhibition of the activation of hepatic stellate cells HSC: concentration-dependently inhibited; also recorded: had an inhibitory effect
[3]; [6]
  serum ALT level: no decrease
  serum AST level: no decrease
[3]; [7]
  collagen content in the liver (Sirius scarlet stained pathological sections, quantitative analysis): reduce the collagen content in the liver without statistical difference
  content of hydroxyproline in liver tissues: reduced
  expression of Col1α1 mRNA in liver tissues: significantly down-regulated
  expression of α-SMA mRNA in liver tissues: significantly down-regulated
  serum ALT level: significantly reduced
  serum AST level: significantly reduced
[4]; high-dose group 60 mg/kg
  ALT level in serum: significantly reduce
  collagen content in the liver (Sirius scarlet stained sections, quantitative analysis): reduce the collagen content in the liver without dose dependence
[4]; low-dose group 6 mg/kg
  ALT level in serum: significantly reduce
  AST level in serum: significantly reduce
  collagen content in the liver (Sirius scarlet stained sections, quantitative analysis): reduce the collagen content in the liver without dose dependence
  content of hydroxyproline in liver tissues: reduced the content of hydroxyproline in liver tissues without statistics significance
[4]; middle-dose group 20 mg/kg
  ALT level in serum: significantly reduce
  AST level in serum: significantly reduce
  collagen content in the liver (Sirius scarlet stained sections, quantitative analysis): reduce the collagen content in the liver without dose dependence

## N#Cc1ccccc1Cn1c(N2CCC[C@@H](N)C2)nc2cc(C(=O)O)sc2c1=O [DC291410, (R)-2-(3-aminopiperidin-1-yl)-3-(2-cyanobenzyl)-4-carbonyl-3,4-dihydrothieno[3,2-d]pyrimidine-6 carboxylic acid]
[2]
  inhibitory activity on HSC activation compared with positive control Alogliptin: better than that of the positive control Alogliptin
  inhibition of the activation of hepatic stellate cells HSC: concentration-dependently inhibited

## N[C@@H](CC(=O)N1CCn2c(nnc2C(F)(F)F)C1)Cc1cc(F)c(F)cc1F [sitagliptin, reference compound]
[4]; high-dose group 60 mg/kg
  ALT level in serum: significantly reduced
  AST level in serum: significantly reduced
[4]; low-dose group 6 mg/kg
  ALT level in serum: no effect
  AST level in serum: no effect
  collagen content in the liver (Sirius scarlet stained sections, quantitative analysis): significantly reduce the collagen content in the liver
[4]; middle-dose group 20 mg/kg
  AST level in serum: significantly reduced
